Drawing on patent US11117898B2, “Pyrazolo-heteroaryl derivative, preparation method and medical use thereof” (Jiangsu Hengrui Medicine Co., Ltd., priority 2016, dated 2021), this text covers IC50, Emax and EC50 for four molecules.

For data set [1], the target named is CYP2D6 (Homo sapiens (Human), UniProt P10635). Put plainly: Inhibition of the enzyme activity of CYP2D6 in human liver microsomes. Format: in vitro ADME. The following applies: probe substrate dextromethorphan. On the procedure: The effect of the compounds of the present invention on the enzyme activity of CYP2D6 in human liver microsomes was determined by the following experimental method:
100 mM PBS buffer was formulated, which was then used to formulate 2.5 mg/ml microsome solution and 5 mM NADPH solution. The 5× concentration of the compound working solution was diluted with PBS gradient (150, 50, 15, 5, 1.5, 0.15, 0.015, 0 μM). The 5× concentration of quinidine working solution was diluted with PBS gradient (150, 50, 15, 5, 1.5, 0.15, 0.015, 0 μM). Dextromethorphan working solution was diluted with PBS to a concentration of 50 μM.
20 μl of 2.5 mg/ml microsome solution, 20 μl of 50 μM testosterone working solution, 20 μl of MgCl2 solution and 20 μl of the compound working solution (150, 50, 15, 5, 1.5, 0.15, 0.015, 0 μM, different reaction systems for each concentration) were taken respectively and mixed well. For the positive control group, the compound was replaced with the same concentration of quinidine. The mixture together with 5 mM NADPH solution were pre-incubated at 37° C. for 5 minutes. After 5 minutes, 20 μl of NADPH were added to each well, the reaction was started and incubated for 30 minutes. All the incubated samples were present in duplicate. After 30 minutes, 250 μl of acetonitrile containing internal standard were added to all samples, mixed well, shaken at 800 rpm for 10 minutes, and then centrifuged at 3700 rpm for 10 minutes. 80 μl of the supernatant were taken and analyzed by LC-MS/MS.
The data were calculated by Graphpad Prism to obtain the IC50 values of the compounds on the metabolite site of CYP2D6.

Data set [2] addresses human TLR8 (Homo sapiens (Human), UniProt Q9NR97). Description: Agonistic activity on human TLR8 in HEK-Blue hTLR8 stably transfected cells. Format: cell-based. To be noted: for EC50: OD 620 nm. The procedure:
The activation effect of the compounds of the present invention on the hTLR8 protein expressed by the HEK-Blue™ hTLR8 stably transfected cells was determined by the following experimental method:
A bag of HEK-Blue detection dry powder was dissolved in 50 ml of water free of endotoxin, and the solution was then placed in an incubator at 37° C. for 10 minutes followed by sterile filtration to prepare a HEK-Blue detection medium. The compound was firstly formulated into a 20 mM stock solution, then diluted with pure DMSO to a maximum concentration of 6×10^6 nM, and a total of 10 points were obtained by a 3-fold gradient dilution. The compound was firstly diluted 20-fold with the medium, then 20 μl of the diluted compound were added to each well.
The supernate was removed from the HEK-Blue™ hTLR8 cells, to which 2-5 ml of pre-warmed PBS were then added. The cells were placed in an incubator for 1-2 minutes, gently pipetted, and counted by trypan blue staining. The cells were re-suspended in the HEK-Blue detection medium to adjust the concentration to 2.2×10^5 cells/ml. 180 μl of cells were added to the above 96-well plate already added with 20 μl of the compounds, and incubated at 37° C. for 6-16 hours.
The activation effect of the compounds of the present invention on human TLR8 can be determined by the above test, and the obtained EC50 values are shown in Table 2.

Chain of CYP2D6 (P10635 whole entry): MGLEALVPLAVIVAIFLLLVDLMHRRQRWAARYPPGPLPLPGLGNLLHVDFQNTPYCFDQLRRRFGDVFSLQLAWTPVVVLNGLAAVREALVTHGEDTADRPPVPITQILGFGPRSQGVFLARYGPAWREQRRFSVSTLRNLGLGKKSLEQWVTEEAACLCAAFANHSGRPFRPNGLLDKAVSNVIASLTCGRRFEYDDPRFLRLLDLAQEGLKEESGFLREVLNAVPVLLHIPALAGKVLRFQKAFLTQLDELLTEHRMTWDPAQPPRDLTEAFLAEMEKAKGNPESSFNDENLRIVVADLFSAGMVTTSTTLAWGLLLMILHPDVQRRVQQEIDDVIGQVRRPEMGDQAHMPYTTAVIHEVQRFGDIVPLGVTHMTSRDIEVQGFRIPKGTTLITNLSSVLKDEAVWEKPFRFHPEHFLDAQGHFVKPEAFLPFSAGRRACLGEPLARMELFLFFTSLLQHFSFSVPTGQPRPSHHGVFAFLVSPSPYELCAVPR
Chain of human TLR8 (Q9NR97 27-1041): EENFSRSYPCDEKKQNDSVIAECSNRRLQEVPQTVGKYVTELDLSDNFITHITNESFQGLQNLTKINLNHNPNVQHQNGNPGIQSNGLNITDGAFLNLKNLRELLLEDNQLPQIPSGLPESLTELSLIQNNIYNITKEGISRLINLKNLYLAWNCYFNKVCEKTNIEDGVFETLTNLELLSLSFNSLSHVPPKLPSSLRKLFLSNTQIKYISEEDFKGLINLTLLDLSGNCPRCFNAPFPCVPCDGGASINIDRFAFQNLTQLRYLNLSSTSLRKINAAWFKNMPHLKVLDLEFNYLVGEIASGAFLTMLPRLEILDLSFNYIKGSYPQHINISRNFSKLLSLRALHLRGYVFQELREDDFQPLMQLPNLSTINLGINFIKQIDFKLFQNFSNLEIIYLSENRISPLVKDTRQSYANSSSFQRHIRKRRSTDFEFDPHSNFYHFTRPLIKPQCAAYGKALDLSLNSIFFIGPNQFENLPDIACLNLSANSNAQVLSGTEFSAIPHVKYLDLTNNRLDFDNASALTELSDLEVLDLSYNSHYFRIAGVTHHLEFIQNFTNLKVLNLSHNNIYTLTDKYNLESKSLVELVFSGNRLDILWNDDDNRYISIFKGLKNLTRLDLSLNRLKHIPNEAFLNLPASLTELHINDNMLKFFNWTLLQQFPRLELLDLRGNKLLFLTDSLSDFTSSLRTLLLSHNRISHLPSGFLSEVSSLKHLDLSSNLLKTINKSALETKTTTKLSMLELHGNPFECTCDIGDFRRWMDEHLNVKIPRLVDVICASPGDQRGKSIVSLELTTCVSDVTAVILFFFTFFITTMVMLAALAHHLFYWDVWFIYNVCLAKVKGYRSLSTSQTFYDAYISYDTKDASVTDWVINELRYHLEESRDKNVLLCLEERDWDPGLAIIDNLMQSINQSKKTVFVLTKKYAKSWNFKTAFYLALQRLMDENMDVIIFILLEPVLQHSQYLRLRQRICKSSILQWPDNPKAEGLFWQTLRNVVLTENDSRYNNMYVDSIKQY

In turn, `CCCCOc1nc(N)c2cnn(Cc3ccc(CN4CCC4)cc3)c2n1` [Example 2, 1-(4-(Azetidin-1-ylmethyl)benzyl)-6-butoxy-1H-pyrazolo[3,4-d]pyrimidin-4-amine] gave an IC50 in data set [1] of over 30 µM. In data set [2], this molecule gave an Emax of 52% and a 50% effective concentration (EC50) of over 29 µM.

The molecule `CCCCOc1nc(N)c2cnn(Cc3ccc(CN4CCCCC4)cc3)c2n1` [Example 3, 6-Butoxy-1-(4-(piperidin-1-ylmethyl)benzyl)-1H-pyrazolo[3,4-d]pyrimidin-4-amine] had a half-maximal inhibitory concentration (IC50) in data set [1] of 4 µM. Besides, in data set [2], the Emax is 2% and the EC50 is over 24 µM.

In the case of `CCCCOc1nc(N)c2cnn(Cc3cccc(CN4CCCC4)c3)c2n1` [Example 4, 6-Butoxy-1-(3-(pyrrolidin-1-ylmethyl)benzyl)-1H-pyrazolo[3,4-d]pyrimidin-4-amine], in data set [1], the IC50 stood at 16 µM. Moreover, in data set [2], the Emax came out at 28% and the EC50 was over 30 µM.

Take `COCCOc1nc(N)c2cnn(Cc3ccc(CN4CCCC4)cc3)c2n1` [Example 7, 6-(2-Methoxyethoxy)-1-(4-(pyrrolidin-1-ylmethyl)benzyl)-1H-pyrazolo[3,4-d]pyrimidin-4-amine]: in data set [1], the IC50 is over 30 µM. In data set [2], the Emax turned out to be 0% and the half-maximal effective concentration (EC50) was over 30 µM.
